{
  "source": "patent US11124479B2",
  "about": "“Oligopyrroles as antagonists of islet amyloid polypeptide oligomerization” (New York University, priority 2017, dated 2021)",
  "target": "T1, islet amyloid polypeptide (IAPP) (Homo sapiens, UniProt P10997)",
  "T1 construct": "IAPP is a 37 residue neuropancreatic hormone peptide; purchased Anaspec (Fremont, Calif.)",
  "T1 sequence (P10997 34-70 limits assumed)": "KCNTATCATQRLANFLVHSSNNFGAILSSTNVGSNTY",
  "experiment": "Seed-catalyzed ThT kinetic assay of IAPP aggregation",
  "assay_type": "biochemical",
  "conditions": "15 μM IAPP; for relative t50 of seed catalyzed fibrillation: seed 5% v/v, lipid membrane DOPG:DOPC 3:7 750 μM; for factor of retardation of seed catalyzed aggregation kinetics: seed 10% v/v",
  "protocol": "Seeds of IAPP were prepared by incubating 100 μM of IAPP in phosphate buffer at room temperature and aged for 24 hours. The formation of fibers was confirmed by TEM and ThT stain before storage at −20° C. until use. For the seed catalyzed aggregation kinetics of IAPP, 10% (based on the monomeric IAPP, v/v) seeds were added with ThT in phosphate buffer to the 96-well plate. The aggregation was initiated by the addition of fresh IAPP followed by gentle mixing. Kinetic assays in the presence of the compounds of the invention were conducted under the same conditions except that the compounds were added from a stock solution (1 mM or 10 mM in DMSO) to keep the final concentration of DMSO less than 1.0% (v/v).\nThe effect of ADH-101 on preformed IAPP oligomers has been investigated. ADH-101 was added during the lag phase of IAPP amyloid kinetics at 1 h and 3 h at an equimolar ratio (IAPP:ADH-101, 1:1, 10 μM IAPP). […] Additionally, ADH-101 has no effect on IAPP amyloid fibers. No change in ThT fluorescence intensity was observed when ADH-101 added to the fibers (FIG. 4, black arrow). […] The kinetics of IAPP fibrillation is dominated by the secondary nucleation which is reflected in the disappearance of the lag phase (FIG. 13). The t50 for the seed catalyzed (5%, v/v) aggregation kinetics of 15 μM IAPP (lipid membrane, DOPG:DOPC, 3:7, 750 μM) is 0.55±0.13 h which is […] faster than the de novo conditions (t50=1.55±0.20 h, FIGS. 13A and 13B). ADH-101 delays the seed catalyzed fibrillation by a relative t50 that is 1.8 fold and 2.6 fold at stoichiometric ratios of 1:1 and 2:1 (ADH-101:IAPP), respectively (FIGS. 13A and 13B). The t50 for the seed catalyzed (10%, v/v) aggregation of 15 μM IAPP is 0.86±0.19 h, which is ˜10 fold faster than the de novo conditions (t50=8.7±0.8 h, FIGS. 13C and 13D). ADH-101 retards the seed catalyzed aggregation kinetics of IAPP by factors of 1.4, 5.4, and 7.1 at stoichiometric ratios of 1:0.1, 1:0.5, and 1:1 (IAPP:ADH-101), respectively (FIGS. 13C and 13D). It is postulated that ADH-101 modulates IAPP conformation and attenuates its ability for oligomerization and fibrillation.",
  "data": [
    {"compound": "CCOC(=O)c1cc(NC(=O)c2cc(NC(=O)c3cc([N+](=O)[O-])cn3CC(C)C)cn2CC(C)C)cn1CCC(=O)O", "note": "[ADH-101]", "values": [
      {"measurement": "relative t50 of seed catalyzed fibrillation", "setting": "ratio 1:1 (ADH-101:IAPP)", "result": 1.8, "unit": "fold"},
      {"measurement": "relative t50 of seed catalyzed fibrillation", "setting": "ratio 2:1 (ADH-101:IAPP)", "result": 2.6, "unit": "fold"},
      {"measurement": "factor of retardation of seed catalyzed aggregation kinetics", "setting": "ratio 1:0.1 (IAPP:ADH-101)", "result": 1.4},
      {"measurement": "factor of retardation of seed catalyzed aggregation kinetics", "setting": "ratio 1:0.5 (IAPP:ADH-101)", "result": 5.4},
      {"measurement": "factor of retardation of seed catalyzed aggregation kinetics", "setting": "ratio 1:1 (IAPP:ADH-101)", "result": 7.1}
    ]}
  ]
}
